Reference: the supplement of paper PMC10307832

Legend:
Experiment in all cases: relative viability (nuclei count vs DMSO), 5 days (fraction); higher = more cells survive
[1] = compound: CC1=C(C(=O)N2C=CSC2=N1)CCN3CCC(=C(C4=CC=CC=C4)C5=CC=C(C=C5)F)CC3 + CC1(C)CCC(c2ccc(Cl)cc2)=C(CN2CCN(c3ccc(C(=O)NS(=O)(=O)c4ccc(N[C@H](CCN5CCOCC5)CSc5ccccc5)c(S(=O)(=O)C(F)(F)F)c4)cc3)CC2)C1 [Navitoclax] (partner 0.5 µM)
Summary of the method: (§1)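 For relative viability, nuclei counts in treated wells were divided by those in vehicle wells. Lung cancer cell lines had been pin-tool dosed in 1536-well plates the day after seeding and cultured for 5 days, then fixed and stained in one step (final 0.05% Triton X-100, 1% formaldehyde, 1 ug/ml Hoechst) and imaged at 4×. Doses were one drug alone or a fixed anchor-drug dose plus five library-drug doses (not always all listed) in √10 steps, and values are duplicate-plate medians.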

[2] = compound: CC1=C(C(=O)N2C=CSC2=N1)CCN3CCC(=C(C4=CC=CC=C4)C5=CC=C(C=C5)F)CC3 + C[C@@H](Oc1cc(-c2cnn(C3CCNCC3)c2)cnc1N)c1c(Cl)ccc(F)c1Cl [Crizotinib] (partner 1 µM)
Summary of the method: as §1

[3] = compound: CC1=C(C(=O)N2C=CSC2=N1)CCN3CCC(=C(C4=CC=CC=C4)C5=CC=C(C=C5)F)CC3 + O=C(CCCCCCC(=O)Nc1ccccc1)NO [Vorinostat] (partner 1 µM)
Summary of the method: as §1

[4] = compound: CC1=C(C(=O)N2C=CSC2=N1)CCN3CCC(=C(C4=CC=CC=C4)C5=CC=C(C=C5)F)CC3 + Cc1nc(Nc2ncc(C(=O)Nc3c(C)cccc3Cl)s2)cc(N2CCN(CCO)CC2)n1 [Dasatinib] (partner 0.075 µM)
Summary of the method: as §1

Row | Cell Line | relative viability ([1]; first compound 0.08 µM) | relative viability ([1]; first compound 0.253 µM) | relative viability ([1]; first compound 0.8 µM) | relative viability ([1]; first compound 2.53 µM) | relative viability ([1]; first compound 8 µM) | relative viability ([2]; first compound 0.08 µM) | relative viability ([2]; first compound 0.253 µM) | relative viability ([2]; first compound 0.8 µM) | relative viability ([2]; first compound 2.53 µM) | relative viability ([2]; first compound 8 µM) | relative viability ([3]; first compound 0.08 µM) | relative viability ([3]; first compound 0.253 µM) | relative viability ([3]; first compound 0.8 µM) | relative viability ([3]; first compound 2.53 µM) | relative viability ([3]; first compound 8 µM) | relative viability ([4]; first compound 0.08 µM) | relative viability ([4]; first compound 0.253 µM) | relative viability ([4]; first compound 0.8 µM) | relative viability ([4]; first compound 2.53 µM) | relative viability ([4]; first compound 8 µM)
1 | NCI-H460 | 0.787 | 0.957 | 1.55 | 1.56 | 0.0629 | 0.597 | 1.16 | 1.09 | 0.794 | 0.188 | 0.516 | 0.352 | 1.05 | 1.22 | 0.261 | 0.508 | 0.444 | 0.486 | 0.574 | 0.395
2 | CAL-12T | 1.21 | 1.34 | 1.26 | 1.33 | 1.2 | 0.694 | 0.829 | 0.657 | 0.741 | 0.46 | 0.566 | 0.728 | 0.727 | 0.957 | 0.513 | 0.319 | 0.268 | 0.373 | 0.527 | 0.279
3 | SW 1573 | 0.777 | 1.02 | 1.11 | 1.15 | 0.409 | 0.74 | 0.919 | 0.819 | 0.714 | 0.726 | 0.808 | 0.697 | 1.01 | 0.795 | 0.423 | – | 0.586 | 0.537 | 0.512 | 0.225
4 | PC-3 [JPC-3] | 0.789 | 0.657 | 0.845 | 0.921 | 0.803 | 1.02 | 0.984 | 1.15 | 1.1 | 0.919 | 0.746 | – | 0.748 | 0.879 | 0.666 | 0.901 | 0.702 | 1.01 | 1.14 | 0.844
5 | EKVX | 0.718 | 0.775 | 0.961 | 0.848 | 0.741 | 0.863 | 1.15 | 1.01 | 0.894 | 0.703 | 0.577 | 0.723 | 0.651 | 0.63 | 0.561 | 0.359 | 0.631 | 0.519 | 0.434 | 0.549
6 | UMC-11 | 0.288 | 0.253 | 0.294 | 0.309 | 0.276 | 0.636 | 0.597 | 0.619 | 0.48 | 0.839 | 0.38 | – | 0.354 | 0.333 | 0.405 | 0.526 | 0.422 | 0.525 | 0.824 | 0.357
7 | NCI-H1651 | 0.984 | 0.654 | 1.01 | 1.29 | 0.404 | 0.83 | 0.829 | 0.891 | 0.971 | 0.773 | 0.552 | 0.547 | 0.557 | 0.616 | 0.452 | 0.406 | 0.535 | 0.423 | 0.434 | 0.341
8 | NCI-H1703 | 1.19 | 1.13 | 1.1 | 1.3 | 0.627 | 0.723 | 0.55 | 0.777 | 0.786 | 0.625 | – | – | – | – | – | – | – | – | – | –
9 | NCI-H1648 | – | – | – | – | – | – | – | – | – | – | 0.26 | 0.36 | 0.603 | 0.4 | 0.338 | – | – | – | – | –
